Data as given in patent US10392366B2, “Azetidine compounds as GPR119 modulators for the treatment of diabetes, obesity, dyslipidemia and related disorders” (SANOFI, priority 2017, dated 2019).

These compounds were tested against T1, human GPR119 (Homo sapiens, UniProt Q8TDV5) (assay: Functional cellular assay measuring GPR119-mediated cAMP release (HTRF) in HEK-293 cells stably expressing recombinant GPR119). Details: cell line expressing human GPR119, 30 minutes at room temperature.
T1 construct: expressed in transfected cells
T1 sequence (Q8TDV5 1-335): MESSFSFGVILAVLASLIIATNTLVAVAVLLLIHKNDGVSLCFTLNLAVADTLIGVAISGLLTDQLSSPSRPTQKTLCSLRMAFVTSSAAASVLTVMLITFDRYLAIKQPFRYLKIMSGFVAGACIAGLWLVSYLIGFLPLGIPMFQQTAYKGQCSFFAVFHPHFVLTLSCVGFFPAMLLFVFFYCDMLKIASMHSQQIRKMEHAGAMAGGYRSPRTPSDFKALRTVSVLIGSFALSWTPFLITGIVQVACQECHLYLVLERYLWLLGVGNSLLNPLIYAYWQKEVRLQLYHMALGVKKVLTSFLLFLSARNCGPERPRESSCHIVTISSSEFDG
Format: cell-based
Description: Functional Cellular Assays Measuring GPR119-mediated cAMP Release
Compounds of the present disclosure, which are agonists of GPR119, were characterized by functional assays measuring the cAMP response of HEK-293 cell lines stably expressing recombinant GPR119 from man, mouse or rat, or by using the hamster cell line HIT-T15 expressing GPR119 endogenously. The cAMP content was determined using a kit based on homogenous time-resolved fluorescence (HTRF) from Cisbio Corp. (cat. no. 62AM4PEC). For preparation, cells were split into T175 culture flasks and grown to near confluency in medium (DMEM/10% FCS for HEK-293 cells, and F-12K medium/10% horse serum/2.5% FCS for HIT-T15 cells, respectively). Medium was then removed and cells washed with PBS lacking calcium and magnesium ions, followed by proteinase treatment with accutase (Sigma-Aldrich, cat. no. A6964). Detached cells were washed and resuspended in assay buffer (1×HBSS; 20 mM HEPES, 0.1% BSA, 2 mM IBMX) and cellular density determined. They were then diluted to 400000 cells/mL and 25 μL-aliquots dispensed to the wells of 96-well plates. For measurement, 25 μL of test compound in assay buffer was added and incubated for 30 minutes at room temperature. After addition of HTRF reagents diluted in lysis buffer, the plates were incubated for 1 hour, followed by measuring the fluorescence ratio at 665 vs. 620 nm. Potency of the agonists was quantified by determining the concentrations that caused 50% of the maximal response/activation (EC50). See Table 6 for exemplary data obtained using the cell line expressing human GPR119.

| Structure (SMILES) | EC50 |
| --- | --- |
| CN(C)C(=O)C1CN(c2ncc(N3CC[C@@H](Oc4ccc(-c5nccs5)cc4)C3=O)cn2)C1 [Compound 2-03] | 324 nM |
| CN(C)C(=O)C1CN(c2ncc(N3CC[C@@H](Oc4ccc(C(=O)C5CC5)nc4)C3=O)cn2)C1 [Compound 2-04] | 926 nM |
| Cc1cnc(-c2ccc(O[C@@H]3CCN(c4cnc(N5CC(C(=O)N(C)C)C5)nc4)C3=O)cn2)s1 [Compound 2-05] | 116 nM |
| CN(C)C(=O)C1CN(c2ncc(N3CC[C@@H](Oc4ccc(C(=O)c5ccc(F)cc5)nc4)C3=O)cn2)C1 [Compound 2-06] | 145 nM |
| CN(C)C(=O)C1CN(c2ncc(N3CC[C@@H](Oc4ccc(C(=O)C5CC5)c(F)c4)C3=O)cn2)C1 [Compound 2-07] | 128 nM |
| CN(C)C(=O)C1CN(c2ncc(N3CC[C@@H](Oc4ccc(C(=O)C5CC(F)(F)C5)cc4)C3=O)cn2)C1 [Compound 2-08] | 223 nM |
| CN(C)C(=O)C1CN(c2ncc(N3CC[C@@H](Oc4ccc(C(=O)CCC(F)(F)F)cc4)C3=O)cn2)C1 [Compound 2-09] | 123 nM |
| CN(C)C(=O)C1CN(c2ncc(N3CC[C@@H](Oc4ccc(C(=O)C5CC5(F)F)cc4)C3=O)cn2)C1 (stereo partly drawn) [Compound 2-10] | 213 nM |
| CN(C)C(=O)C1CN(c2ncc(N3CC[C@@H](Oc4ccc(C(=O)C5CC(F)(F)C5)nc4)C3=O)cn2)C1 [Compound 2-11] | 470 nM |
| O=C(O)C1CN(c2ncc(N3CC[C@@H](Oc4ccc(OCC5CC5)nc4)C3=O)cn2)C1 [Compound 3-01] | 4920 nM |
| O=C(O)C1CN(c2ccc(N3CC[C@@H](Oc4ccc(OCC(F)(F)F)nc4)C3=O)cn2)C1 [Compound 3-02] | 391 nM |
| O=C(O)C1CN(c2ccc(N3CC[C@@H](Oc4ccc(OCC5CC5)nc4)C3=O)cn2)C1 [Compound 3-03] | 6050 nM |
| O=C(O)C1CN(c2ncc(N3CC[C@@H](Oc4ccc(OCC(F)(F)F)nc4)C3=O)cn2)C1 [Compound 3-04] | 9160 nM |
| CNC(=O)C1CN(c2ncc(N3CC[C@@H](Oc4ccc(Oc5ccc(F)cc5)nc4)C3=O)cn2)C1 [Compound 4-01] | 2060 nM |
| NC(=O)CNC(=O)C1CN(c2ncc(N3CC[C@@H](Oc4ccc(Oc5ccc(F)cc5)nc4)C3=O)cn2)C1 [Compound 4-02] | 6710 nM |
| CCNC(=O)C1CN(c2ncc(N3CC[C@@H](Oc4ccc(Oc5ccc(F)cc5)nc4)C3=O)cn2)C1 [Compound 4-03] | 4040 nM |
| NC(=O)C1CN(c2ncc(N3CC[C@@H](Oc4ccc(Oc5ccc(F)cc5)nc4)C3=O)cn2)C1 [Compound 4-04] | 5880 nM |
| CC(C)NC(=O)C1CN(c2ncc(N3CC[C@@H](Oc4ccc(Oc5ccc(F)cc5)nc4)C3=O)cn2)C1 [Compound 4-05] | 1680 nM |
| O=C(C1CN(c2ncc(N3CC[C@@H](Oc4ccc(Oc5ccc(F)cc5)nc4)C3=O)cn2)C1)N1CCC(O)CC1 [Compound 4-06] | 665 nM |
| CCN(CC)C(=O)C1CN(c2ncc(N3CC[C@@H](Oc4ccc(Oc5ccc(F)cc5)nc4)C3=O)cn2)C1 [Compound 4-07] | 283 nM |
| CC(=O)N1CCN(C(=O)C2CN(c3ncc(N4CC[C@@H](Oc5ccc(Oc6ccc(F)cc6)nc5)C4=O)cn3)C2)CC1 [Compound 4-08] | 1280 nM |
| O=C(NC1CC1)C1CN(c2ncc(N3CC[C@@H](Oc4ccc(Oc5ccc(F)cc5)nc4)C3=O)cn2)C1 [Compound 4-09] | 1520 nM |
| O=C(C1CN(c2ncc(N3CC[C@@H](Oc4ccc(Oc5ccc(F)cc5)nc4)C3=O)cn2)C1)N1CCCC1 [Compound 4-10] | 437 nM |

| Structure (SMILES) | EC50 |
| --- | --- |
| O=C(C1CN(c2ncc(N3CC[C@@H](Oc4ccc(Oc5ccc(F)cc5)nc4)C3=O)cn2)C1)N1CC(O)C1 [Compound 4-11] | 915 nM |
| O=C(NCCO)C1CN(c2ncc(N3CC[C@@H](Oc4ccc(Oc5ccc(F)cc5)nc4)C3=O)cn2)C1 [Compound 4-12] | 5750 nM |
| CCNC(=O)C1CN(c2ncc(N3CC[C@@H](Oc4ccc(OCC(F)(F)F)nc4)C3=O)cn2)C1 [Compound 4-13] | 244 nM |
| CCN(CC)C(=O)C1CN(c2ncc(N3CC[C@@H](Oc4ccc(OCC(F)(F)F)nc4)C3=O)cn2)C1 [Compound 4-14] | 84 nM |
| O=C(C1CN(c2ncc(N3CC[C@@H](Oc4ccc(OCC(F)(F)F)nc4)C3=O)cn2)C1)N1CCCC1 [Compound 4-15] | 84 nM |
| CNCCOC(=O)C1CN(c2ncc(N3CC[C@@H](Oc4ccc(OCC(F)(F)F)nc4)C3=O)cn2)C1 [Compound 4-16] | 213 nM |
| CN(CCO)C(=O)C1CN(c2ncc(N3CC[C@@H](Oc4ccc(OCC(F)(F)F)nc4)C3=O)cn2)C1 [Compound 4-17] | 261 nM |
| CN(CC(N)=O)C(=O)C1CN(c2ncc(N3CC[C@@H](Oc4ccc(OCC(F)(F)F)nc4)C3=O)cn2)C1 [Compound 4-18] | 398 nM |
| CN(C(=O)C1CN(c2ncc(N3CC[C@@H](Oc4ccc(OCC(F)(F)F)nc4)C3=O)cn2)C1)C1CC1 [Compound 4-19] | 85 nM |
| CC(C)N(C)C(=O)C1CN(c2ncc(N3CC[C@@H](Oc4ccc(OCC(F)(F)F)nc4)C3=O)cn2)C1 [Compound 4-20] | 82 nM |
| NC(=O)C1CN(c2ncc(N3CC[C@@H](Oc4ccc(OCC(F)(F)F)nc4)C3=O)cn2)C1 [Compound 4-21] | 245 nM |
| O=C(C1CN(c2ncc(N3CC[C@@H](Oc4ccc(OCC(F)(F)F)nc4)C3=O)cn2)C1)N1CCC1 [Compound 4-22] | 116 nM |
| COCC(=O)NC1CN(c2ncc(N3CC[C@@H](Oc4ccc(OCC(F)(F)F)nc4)C3=O)cn2)C1 [Compound 4-23] | 956 nM |
| CC(=O)NC1CN(c2ncc(N3CC[C@@H](Oc4ccc(OCC(F)(F)F)nc4)C3=O)cn2)C1 [Compound 4-24] | 1350 nM |
| CNC(=O)C1CN(c2ccc(N3CC[C@@H](Oc4ccc(OCC(F)(F)F)nc4)C3=O)cn2)C1 [Compound 4-25] | 88 nM |
| NC(=O)C1CN(c2ccc(N3CC[C@@H](Oc4ccc(OCC(F)(F)F)nc4)C3=O)cn2)C1 [Compound 4-26] | 101 nM |
| [2H]C([2H])([2H])N(C(=O)C1CN(c2ncc(N3CC[C@@H](Oc4ccc(OCC(F)(F)F)nc4)C3=O)cn2)C1)C([2H])([2H])[2H] [Compound 4-27] | 122 nM |
| NC(=O)OC1CN(c2ncc(N3CC[C@@H](Oc4ccc(OCC(F)(F)F)nc4)C3=O)cn2)C1 [Compound 5-01] | 458 nM |
| CN(C)C(=O)OC1CN(c2ncc(N3CC[C@@H](Oc4ccc(OCC(F)(F)F)nc4)C3=O)cn2)C1 [Compound 5-02] | 1030 nM |
| O=C1[C@H](Oc2ccc(OCC(F)(F)F)nc2)CCN1c1cnc(N2CC(n3cn[nH]c3=O)C2)nc1 [Compound 5-03] | 663 nM |
| O=C(NCO)C1CN(c2ccc(N3CC[C@@H](Oc4ccc(OCC(F)(F)F)nc4)C3=O)cn2)C1 [Compound 5-04] | 146 nM |
| CN(CO)C(=O)C1CN(c2ccc(N3CC[C@@H](Oc4ccc(OCC(F)(F)F)nc4)C3=O)cn2)C1 [Compound 5-05] | 67 nM |
